# Data: patent US6589993B2, “Treating vancomycin-intermediates and multiresistant staphylococci infection with thiamphenicol or a salt thereof” (Zambon Group S.p.A., priority 2000, dated 2003)
# What was measured:
# [1] = system: S. aureus vancomycin-intermediates (VISA) Met-R strains; test: MIC determination (NCCLS broth microdilution), VISA Met-R strains; assay type: cell-based, Staphylococcus aureus
# Description: (§1) The MICs of thiamphenicol and of other antibiotics was obtained by using the method proposed by NCCLS (National Committee for Clinical Laboratory Standards, 1999).
# (§2) Various antibiotic concentrations were added to bacteria in exponental growth (final inoculum 5×10^5 […]); dilution in Mb (cation-supplemented Mueller-Hinton broth) and distribution on a microplate by using an automatic diluting machine Biomek 1000 (Beckman, USA). MHb charged with 2% NaCl was used to test the methicillin activity.
# (§3) The antibiotic concentration which hinders a visible growth after 18-24 hours of incubation at 37° C., was registered as MIC.
# (§4) S. aureus ATCC 29213 was used as quality control strain.
# [2] = system: S. aureus Met-R multiresistant strains; test: MIC determination (NCCLS broth microdilution), methicillin-resistant multiresistant S. aureus strains; assay type: cell-based, Staphylococcus aureus; settings: for MIC: antibiotype Oxa, Ery
# Description: as §1, §2, §3, §4
compound,measurement,setting,value
"CN[C@H](CC(C)C)C(=O)N[C@H]1C(=O)N[C@@H](CC(N)=O)C(=O)N[C@H]2C(=O)N[C@H]3C(=O)N[C@H](C(=O)N[C@H](C(=O)O)c4cc(O)cc(O)c4-c4cc3ccc4O)[C@H](O)c3ccc(c(Cl)c3)Oc3cc2cc(c3O[C@@H]2O[C@H](CO)[C@@H](O)[C@H](O)[C@H]2O[C@H]2C[C@](C)(N)[C@H](O)[C@H](C)O2)Oc2ccc(cc2Cl)[C@H]1O [Vancomicine, vancomycine]",MIC,"[1]; Staphylococcus aureus, VISA",8 µg/mL
same,MIC,"[1]; Strain 52 VISA, antibiotype Oxa, Cip, Clin, Ery",8 µg/mL
same,MIC Range,[1]; VISA (2) Met-R,8 µg/mL
same,MIC Range,[2]; S. aureus (50) Met-R,"0,5-2 mg/l"
same,% susceptible at breakpoint,"[2]; S. aureus (50) Met-R, NCCLS (1999) breakpoints",100%
same,MIC50,[2]; Staphylococcus aureus,1 µg/mL
same,MIC90,[2]; Staphylococcus aureus,1 µg/mL
same,MIC,"[2]; Staphylococcus aureus, Strain 1, Cip, Clin, Gm",0.5 µg/mL
same,MIC,"[2]; Staphylococcus aureus, Strain 2, Clin, Fos",1 µg/mL
same,MIC,"[2]; Staphylococcus aureus, Strain 3, Cip, Clin, Gm",1 µg/mL
same,MIC,"[2]; Staphylococcus aureus, Strain 4, Cip, Gm",1 µg/mL
same,MIC,"[2]; Staphylococcus aureus, Strain 5, Cip, Clin",1 µg/mL
same,MIC,"[2]; Staphylococcus aureus, Strain 6, Clin, Gm",1 µg/mL
same,MIC,"[2]; Staphylococcus aureus, Strain 7, Cip, Gm",0.5 µg/mL
same,MIC,"[2]; Staphylococcus aureus, Strain 8, Cip, Clin",1 µg/mL
same,MIC,"[2]; Staphylococcus aureus, Strain 9, Cip, Clin, Gm",1 µg/mL
same,MIC,"[2]; Staphylococcus aureus, Strain 10, Cip, Clin, Gm",1 µg/mL
same,MIC,"[2]; Staphylococcus aureus, Strain 11, Clin, Rif",1 µg/mL
same,MIC,"[2]; Staphylococcus aureus, Strain 12, Cip, Clin",1 µg/mL
same,MIC,"[2]; Staphylococcus aureus, Strain 13, Cip, Clin",1 µg/mL
same,MIC,"[2]; Staphylococcus aureus, Strain 14, Clin, Cip",1 µg/mL
same,MIC,"[2]; Staphylococcus aureus, Strain 15, Cip, Clin, Gm",0.5 µg/mL
same,MIC,"[2]; Staphylococcus aureus, Strain 16, Cip, Clin",1 µg/mL
same,MIC,"[2]; Staphylococcus aureus, Strain 17, Cip, Clin",0.5 µg/mL
same,MIC,"[2]; Staphylococcus aureus, Strain 18, Cip, Clin, Gm",1 µg/mL
same,MIC,"[2]; Staphylococcus aureus, Strain 19, Cip, Clin, Gm",1 µg/mL
same,MIC,"[2]; Staphylococcus aureus, Strain 20, Cip, Clin, Gm",1 µg/mL
same,MIC,"[2]; Staphylococcus aureus, Strain 21, Cip, Clin, Gm",1 µg/mL
same,MIC,"[2]; Staphylococcus aureus, Strain 22, Cip, Clin",0.5 µg/mL
same,MIC,"[2]; Staphylococcus aureus, Strain 23, Cip, Clin, Gm",1 µg/mL
same,MIC,"[2]; Staphylococcus aureus, Strain 24, Cip, Clin, Gm",1 µg/mL
same,MIC,"[2]; Staphylococcus aureus, Strain 25, Cip, Clin, Gm",1 µg/mL
same,MIC,"[2]; Staphylococcus aureus, Strain 26, Cip, Clin, Fos, Gm",1 µg/mL
same,MIC,"[2]; Staphylococcus aureus, Strain 27, Cip, Clin, Fos, Gm",1 µg/mL
same,MIC,"[2]; Staphylococcus aureus, Strain 28, Cip, Clin, Gm",1 µg/mL
same,MIC,"[2]; Staphylococcus aureus, Strain 29, Clin, Fos",1 µg/mL
same,MIC,"[2]; Staphylococcus aureus, Strain 30, Cip, Clin, Gm, SXT, Dox",0.5 µg/mL
same,MIC,"[2]; Staphylococcus aureus, Strain 31, Cip, Clin, Fox, Gm",1 µg/mL
same,MIC,"[2]; Staphylococcus aureus, Strain 32, Cip, Clin, Gm, SXT, Rif",1 µg/mL
same,MIC,"[2]; Staphylococcus aureus, Strain 33, Cip, Clin, Gm",0.5 µg/mL
same,MIC,"[2]; Staphylococcus aureus, Strain 34, Cip, Clin, Gm",0.5 µg/mL
same,MIC,"[2]; Staphylococcus aureus, Strain 35, Cip, Clin, Gm",1 µg/mL
same,MIC,"[2]; Staphylococcus aureus, Strain 36, Cip, Clin, Fos",0.5 µg/mL
same,MIC,"[2]; Staphylococcus aureus, Strain 37, Cip, Clin, Fos, Gm",0.5 µg/mL
same,MIC,"[2]; Staphylococcus aureus, Strain 38, Cip, Gm",0.5 µg/mL
same,MIC,"[2]; Staphylococcus aureus, Strain 39, Cip, Clin, Fos, Gm",0.5 µg/mL
same,MIC,"[2]; Staphylococcus aureus, Strain 40, Cip, Clin, Gm",0.5 µg/mL
same,MIC,"[2]; Staphylococcus aureus, Strain 41, Cip, Clin",0.5 µg/mL
same,MIC,"[2]; Staphylococcus aureus, Strain 42, Cip, Clin, Gm",0.5 µg/mL
same,MIC,"[2]; Staphylococcus aureus, Strain 43, Cip, Clin, Gm",0.5 µg/mL
same,MIC,"[2]; Staphylococcus aureus, Strain 44, Cip, Clin, Gm, Rif, Dox",1 µg/mL
same,MIC,"[2]; Staphylococcus aureus, Strain 45, Cip, Clin, Gm, Rif, Dox, Fos",1 µg/mL
same,MIC,"[2]; Staphylococcus aureus, Strain 46, Clin, Fos",0.5 µg/mL
same,MIC,"[2]; Staphylococcus aureus, Strain 47, Cip, Clin, Gm",0.5 µg/mL
same,MIC,"[2]; Staphylococcus aureus, Strain 48, Cip, Clin",2 µg/mL
same,MIC,"[2]; Staphylococcus aureus, Strain 49, Cip, Gm",1 µg/mL
same,MIC,"[2]; Staphylococcus aureus, Strain 50, Cip, Clin, Gm, Rif, Dox",1 µg/mL
